Results as given in patent US11970600B2, “Di-cumyl peroxide crosslinking of UHMWPE” (priority 2021, dated 2024).
Where two headings read alike, the source gives them in different places.

Key:
[1] = set-up: species or system humans; settings: for ALfemale (allowable limit): adult females, 58 kg body weight; for ALmale (allowable limit): adult males, 70 kg body weight
Description: Toxicological risk assessment of five previously characterized byproducts, per Sayoun, J; Crepet A; Gouanve F; Keromnes L; Espuche E. 2017. “Diffusion mechanism of byproducts resulting from the peroxide crosslinking of polyethylene.” J. Appl. Polym. Sci. 44525. doi: 10.1002/APP.44525, was carried out following ISO 10993-17:2002. Quantification was based on the maximum amount of chemical exposures from the anticipated maximum number of implants a patient may receive (in this case, 4 implants). An exhaustive literature search for toxicity data was conducted specific to each chemical of interest. This was accomplished via ToxPlanet (a federated search engine that extracts the content from 500+ websites). Biocompatibility endpoints were determined based on ISO 10993-1:2018 and recent United States Food and Drug Administration (US Food and Drug Administration 2016a. “Use of International Standard ISO-10993, ‘Biological evaluation of medical devices—Part 1: Evaluation and testing within a risk management process’: Guidance for Industry and Food and Drug Administration Staff.” Center for Devices and Radiological Health (CDRH), 68p). These endpoints include chronic toxicity, reproductive and developmental toxicity, genotoxicity, carcinogenicity, and sensitization.
The in silico methods utilized an expert-rule-based program (Toxtree version 3.1.0; Ideaconsult Ltd., 2018) and the statistics-based program VEGA version 1.2.8 and Benfenati, E; Manganaro, A; Gini, G. 2013. “VEGA-QSAR: AI inside a platform for predictive toxicology.” In CEUR Workshop Proceedings, Volume 1107: Proceedings of The Second Workshop on Popularize Artificial Intelligence, (PAI 2013), Turin, Italy), consistent with the International Council for Harmonisation of Technical Requirements for Pharmaceuticals for Human Use (ICH) and US FDA guidelines for the assessment of DNA reactive impurities in pharmaceuticals (M7 guidelines; International Council for Harmonisation of Technical Requirements for Pharmaceuticals for Human Use (ICH). 2017a. “ICH Harmonised Guideline: Assessment and Control of DNA Reactive (Mutagenic) Impurities in Pharmaceuticals to Limit Potential Carcinogenic Risk M7(R1) (Current Step 4 Version); US Food and Drug Administration (US FDA 2018. “Guidance for Industry: M7(R1) Assessment and Control of DNA Reactive (Mutagenic) Impurities in Pharmaceuticals to Limit Potential Carcinogenic Risk.” Center for Drug Evaluation and Research (CDER), Center for Biologics Evaluation and Research (CBER)).
The allowable limit (AL) was calculated using the no-observed-adverse-effect level (NOAEL) limits ascertained from the literature search and in silico methods described above. The NOAELs were then adjusted by the average body weight (BW) for adult males (70 kg) and adult females (58 kg). Following the recommendations of ISO 10993-17 and ICH Q3C(R7) (International Organization for Standardization (ISO). 2002. “ISO 10993-17: Biological Evaluation of Medical Devices—Part 17: Establishment of Allowable Limits for Leachable Substances.” ISO 10993-17: 2002; International Council for Harmonisation of Technical Requirements for Pharmaceuticals for Human Use (ICH). 2018. “ICH Harmonised Guideline: Impurities: Guideline for Residual Solvents Q3C(R7) (Current Step 4 Version).”), the values were then adjusted by a series of uncertainty factors (UFs). UF1=10 to account for interindividual variation; UF2=5 for extrapolation of effects from rats to humans; UF3=10 to account for extrapolation from an oral exposure study to systemic exposure risk associated with an implanted device; UF4=5 to account for extrapolation of results from a 90-day toxicity study in rodents to lifetime exposure associated with a permanent implant; and UF5=10 to account for extrapolation of a lowest-observed-adverse-effect level (LOAEL) to a NOAEL, if needed.

[2] = cited from earlier work

SMILES | ALfemale (allowable limit) [1] | ALmale (allowable limit) [1] | half-life temperature ([2]; for 1 minute) | half-life temperature ([2]; for 1 hour) | half-life temperature ([2]; for 10 hours)
C=C(CC(C)(C)c1ccccc1)c1ccccc1 [2,4-Diphenyl-4-methyl-1-pentene] | 232 µg/day | 280 µg/day | – | – | –
CC(=O)c1ccccc1 [Acetophenone] | 9,810 μg/day | 11,800 μg/day | – | – | –
CC(C)(O)c1ccccc1 [Cumyl alcohol] | 1,800 μg/day | 1,800 μg/day | – | – | –
CC(C)(OOC(C)(C)c1ccccc1)c1ccccc1 [Dicumyl peroxide] | 1,860 μg/day | 2,240 μg/day | 120 °C | 80 °C | 61 °C
